Patent publication US6593326B1, “2,4-diamino pyrimidine compounds having anti-cell proliferative activity” (AstraZeneca AB, priority 1998, dated 2003)

How the values were obtained:
[1] = molecular target: T1, CDK4/Cyclin D1 (Homo sapiens, UniProt P11802); assay: CDK4 Inhibition Assay (Scintillation Proximity Assay, GST-Retinoblastoma substrate); format: biochemical; conditions: in vitro kinase assay; read-out: CDK4 inhibitory activity IC50
T1 construct: made in house; host or cells: Sf21 insect cells (baculovirus co-infection, pVL1393); the substrate was made in E. coli BL21 (DE3) pLysS
T1 sequence (P11802 whole entry): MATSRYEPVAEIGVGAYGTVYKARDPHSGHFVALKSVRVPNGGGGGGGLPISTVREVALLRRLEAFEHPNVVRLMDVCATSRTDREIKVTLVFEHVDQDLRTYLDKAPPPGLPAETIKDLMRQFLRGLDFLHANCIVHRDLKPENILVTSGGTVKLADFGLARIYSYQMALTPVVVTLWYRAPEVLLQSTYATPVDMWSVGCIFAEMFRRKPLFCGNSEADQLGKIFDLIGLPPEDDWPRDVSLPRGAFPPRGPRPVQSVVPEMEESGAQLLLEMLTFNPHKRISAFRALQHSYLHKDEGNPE
T1 sequence (P24385 whole entry partner): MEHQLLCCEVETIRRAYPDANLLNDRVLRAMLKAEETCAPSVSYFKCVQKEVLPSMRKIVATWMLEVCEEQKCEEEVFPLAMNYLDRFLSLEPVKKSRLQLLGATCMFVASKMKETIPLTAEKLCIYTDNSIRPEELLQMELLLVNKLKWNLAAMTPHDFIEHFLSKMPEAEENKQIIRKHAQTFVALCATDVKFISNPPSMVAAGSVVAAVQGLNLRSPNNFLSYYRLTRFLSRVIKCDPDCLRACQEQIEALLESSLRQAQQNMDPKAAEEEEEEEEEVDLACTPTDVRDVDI
Description: The compounds were tested in an in vitro kinase assay in 96 well format using Scintillation Proximity Assay (SPA-obtained from Amersham) for measuring incorporation of [γ-33-P]-Adenosine Triphosphate into a test substrate (GST-Retinoblastoma). In each well was placed the compound to be tested (diluted in DMSO and water to correct concentrations) and in control wells either p16 as an inhibitor control or DMSO as a positive control.
Approximately 0.5 μl of CDK4/Cyclin D1 partially-purified enzyme (amount dependent on enzyme activity) diluted in 25 μl incubation buffer was added to each well then 20 μl of GST-Rb/ATP/ATP33 mixture (containing 0.5 μg GST-Rb and 0.2 μM ATP and 0.14 μCi [γ-33-P]-Adenosine Triphosphate), and the resulting mixture shaken gently, then incubated at room temperature for 60 minutes. […]
The plates were sealed with Topseal-S plate sealers, left for two hours then spun at 2500 rpm, 1124×g., for 5 minutes. The plates were read on a Topcount for 30 seconds per well. […]
E.coli paste was resuspended in 10 ml/g of NETN buffer (50 mM Tris pH 7.5, 120 mM NaCl, 1 mM EDTA, 0.5% v/v NP-40, 1 mM PMSF, 1 ug/ml leupeptin, 1 ug/ml aprotinin and 1 ug/ml pepstatin) and sonicated for 2×45 seconds per 100 ml homogenate. […] The final product was analysed by Sodium Dodeca Sulfate (SDS) PAGE (Polyacrylamide gel) using 8-16% Tris-Glycine gels (Novex, San Diego, USA). […]

[2] = molecular target: T2, human Focal Adhesion Kinase (FAK) (Homo sapiens, UniProt Q05397); assay: FAK3 Kinase Inhibition Assay; format: biochemical; conditions: in vitro enzyme assay; read-out: FAK inhibitory activity IC50
T2 construct: FAK (full length human cDNA described by Andre et al); made in house; host or cells: Sf21 insect cells (baculovirus, pFastbac 1)
T2 sequence (Q05397 whole entry): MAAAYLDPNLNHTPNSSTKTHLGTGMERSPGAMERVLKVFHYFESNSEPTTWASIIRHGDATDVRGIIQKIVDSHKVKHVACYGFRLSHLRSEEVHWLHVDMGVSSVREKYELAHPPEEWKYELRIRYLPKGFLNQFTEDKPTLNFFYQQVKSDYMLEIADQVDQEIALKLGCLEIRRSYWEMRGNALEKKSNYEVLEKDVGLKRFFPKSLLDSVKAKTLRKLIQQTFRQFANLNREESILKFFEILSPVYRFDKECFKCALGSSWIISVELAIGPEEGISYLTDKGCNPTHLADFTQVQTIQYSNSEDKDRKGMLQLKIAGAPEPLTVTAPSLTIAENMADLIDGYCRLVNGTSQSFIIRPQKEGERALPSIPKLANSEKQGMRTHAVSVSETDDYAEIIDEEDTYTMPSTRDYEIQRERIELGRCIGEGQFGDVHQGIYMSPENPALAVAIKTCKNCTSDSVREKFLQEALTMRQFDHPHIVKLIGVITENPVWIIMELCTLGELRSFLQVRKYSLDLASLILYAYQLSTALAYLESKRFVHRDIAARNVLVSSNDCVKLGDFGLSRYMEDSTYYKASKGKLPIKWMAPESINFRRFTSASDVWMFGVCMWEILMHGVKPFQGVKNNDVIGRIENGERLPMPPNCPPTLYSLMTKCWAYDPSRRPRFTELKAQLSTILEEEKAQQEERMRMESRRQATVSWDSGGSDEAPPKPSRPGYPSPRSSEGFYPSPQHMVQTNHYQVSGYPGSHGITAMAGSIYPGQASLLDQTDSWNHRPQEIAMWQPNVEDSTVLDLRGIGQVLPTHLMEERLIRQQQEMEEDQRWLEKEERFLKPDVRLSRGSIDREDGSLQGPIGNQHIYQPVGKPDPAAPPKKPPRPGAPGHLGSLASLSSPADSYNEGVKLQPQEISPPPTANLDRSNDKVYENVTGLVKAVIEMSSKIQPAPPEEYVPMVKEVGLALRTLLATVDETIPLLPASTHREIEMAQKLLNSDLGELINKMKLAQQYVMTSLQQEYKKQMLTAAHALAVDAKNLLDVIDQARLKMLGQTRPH
From the text: FAK3 Kinase Inhibition Assay
This assay determines the ability of a test compound to inhibit tyrosine kinase activity of human Focal Adhesion Kinase (FAK).
DNA encoding FAK is obtained by total gene synthesis (Edwards M, International Biotechnology Lab 5(3), 19-25, 1987) or by cloning. These are then expressed in a suitable expression system to obtain polypeptide with tyrosine kinase activity.
Active FAK protein has been previously expressed in a baculovirus system using a similar N-terminal 6-histidine tag (Protein Expression And Purification, 1996, 7: 12-18). The human FAK cDNA was cloned into the baculovirus transplacement vector, pFastbac 1 (Life Technologies), and the recombinant construct was co-transfected into insect cells (for example Spodoptera frugiperda 21(Sf21)) with viral DNA to prepare recombinant baculovirus (details of the methods for the assembly of recombinant DNA molecules and the preparation and use of recombinant baculovirus can be found in standard texts for example Sambrook et al, 1989, Molecular cloning—A Laboratory Manual, 2nd edition, Cold Spring Harbour Laboratory Press and O'Reilly et al, 1992, Baculovirus Expression Vectors—A Laboratory Manual, W. H. Freeman and Co, New York. Details specific to the use of the pFastbac (‘Bac to Bac’) system are provided in Anderson et al., 1995, FOCUS (Life Technologies Bulletin Magazine), 17, p53.) […]

Structure (SMILES) | IC50 [1] | IC50 [2]
CN(C)CC(O)COc1ccc(Nc2ncc(Br)c(Nc3ccccc3)n2)cc1 (racemic) [Example 3, 4-anilino-5-bromo-2-{4-[3-(N,N-dimethyl)amino-2-hydroxypropoxy]anilino}pyrimidine] | 0.07 µM | 
Cc1ccc(F)c(Nc2nc(Nc3ccc(OCC(O)CN(C)C)cc3)ncc2Br)c1 (stereo not shown) [Example 5, 2-{4-[3-(N,N-Dimethyl)amino-2-hydroxy-propoxy]anilino}-4-(2-fluoro-5-methylanilino)-5-bromo-pyrimidine] | 0.02 µM | 
CN(C)CC(O)COc1ccc(Nc2ncc([N+](=O)[O-])c(Nc3ccccc3F)n2)cc1 (stereo not shown) [Example 6] |  | 0.032 µM
CC(C)NCCCNc1ccc(Nc2ncc(Br)c(Nc3ccccn3)n2)cc1 [Example 220] |  | 0.07 µM
